Measured values published in patent US12077503B2, “Substituted cyclic amides and their use as herbicides” (FMC CORPORATION, priority 2015, dated 2024).

What was measured:
Type in all cases: in vivo
[1] = tested on: giant foxtail (Setaria faberii); assay: Test A preemergence
Procedure, shortened: (§1)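 Visual injury, scored on a 0–100 scale relative to untreated controls, was recorded about 10 d after application. Treatments were a preemergence soil spray over planted seeds or a postemergence spray on plants at the one- to two-leaf stage, 2 to 10 cm tall, all in loam soil–sand blend in the greenhouse.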

[2] = tested on: pigweed (Amaranthus retroflexus); assay: Test A preemergence
[3] = tested on: Kochia (Kochia scoparia); assay: Test A preemergence
Procedure, shortened: as §1

[4] = tested on: ragweed (common ragweed, Ambrosia elatior); assay: Test A preemergence
Procedure, shortened: as §1

[5] = tested on: barnyardgrass (Echinochloa crus-galli); assay: Test A preemergence
Procedure, shortened: as §1

[6] = tested on: ryegrass, Italian (Italian ryegrass, Lolium multiflorum); assay: Test A preemergence
Procedure, shortened: as §1

[7] = tested on: giant foxtail (Setaria faberii); assay: Test A postemergence
Procedure, shortened: as §1

[8] = tested on: corn (Zea mays); assay: Test A postemergence
Procedure, shortened: as §1

[9] = tested on: pigweed (Amaranthus retroflexus); assay: Test A postemergence
Procedure, shortened: as §1

[10] = tested on: Kochia (Kochia scoparia); assay: Test A postemergence
Procedure, shortened: as §1

[11] = tested on: Galium (catchweed bedstraw, Galium aparine); assay: Test A postemergence
Procedure, shortened: as §1

[12] = tested on: ragweed (common ragweed, Ambrosia elatior); assay: Test A postemergence
Procedure, shortened: as §1

[13] = tested on: barnyardgrass (Echinochloa crus-galli); assay: Test A postemergence
Procedure, shortened: as §1

[14] = tested on: wheat (Triticum aestivum); assay: Test A postemergence
Procedure, shortened: as §1

[15] = tested on: blackgrass (Alopecurus myosuroides); assay: Test A postemergence
Procedure, shortened: as §1

[16] = tested on: ryegrass, Italian (Italian ryegrass, Lolium multiflorum); assay: Test A postemergence
Procedure, shortened: as §1

[17] = tested on: rice (Oryra sativa); assay: Test B flooded paddy test; details: Flood, 0 to 100 scale where 0 is no effect and 100 is complete control, 13 to 15 d
Procedure, shortened: (§2)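 Compound goes directly into floodwater once pots are flooded 3 cm above soil, targeting plants at two leaves; the water depth is then held for the test duration. Plants sit 13–15 d in a greenhouse and are rated visually, 100 denoting complete control.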

[18] = tested on: ducksalad (Heteranthera limosa); assay: Test B flooded paddy test; details: Flood, 0 to 100 scale where 0 is no effect and 100 is complete control, 13 to 15 d
Procedure, shortened: as §2

[19] = tested on: sedge, umbrella (small-flower umbrella sedge, Cyperus difformis); assay: Test B flooded paddy test; details: Flood, 0 to 100 scale where 0 is no effect and 100 is complete control, 13 to 15 d
Procedure, shortened: as §2

[20] = tested on: barnyardgrass (Echinochloa crus-galli); assay: Test B flooded paddy test; details: Flood, 0 to 100 scale where 0 is no effect and 100 is complete control, 13 to 15 d
Procedure, shortened: as §2

[21] = 125 g ai/ha, Preemergence, visual injury after approximately 10 d, 0 to 100 scale where 0 is no effect and 100 is complete control
[22] = 500 g ai/ha, preemergence, 0 to 100 scale, 0 = no effect, 100 = complete control
[23] = 125 g ai/ha, postemergence, visual rating after approx. 10 d, 0 to 100 scale (0 no effect, 100 complete control)
[24] = Postemergence, 500 g ai/ha, 0 to 100 scale where 0 is no effect and 100 is complete control
[25] = 500 g ai/ha, postemergence, visual injury, 0 to 100 scale (0 no effect, 100 complete control), approx. 10 d

## CN1CC(c2ccc(C(F)(F)F)cc2)C(C(=O)Nc2ccc(F)cc2F)C1=O (stereo not drawn) [Compound 625]
[1]; [21]
  Plant response rating, Foxtail, Giant: 90
[1]; [22]
  Plant response rating, Foxtail, Giant: 90
[2]; [21]
  Plant response rating, Pigweed: 50
[2]; [22]
  Plant response rating, Pigweed: 90
[3]; [21]
  Plant response rating, Kochia: 50
[3]; [22]
  Plant response rating, Kochia: 80
[4]; [21]
  Plant response rating, Ragweed: 20
[4]; [22]
  Plant response rating, Ragweed: 60
[5]; [21]
  Plant response rating, Barnyardgrass: 80
[5]; [22]
  Plant response rating, Barnyardgrass: 90
[6]; [21]
  Plant response rating, Ryegrass, Italian: 30
[6]; [22]
  Plant response rating, Ryegrass, Italian: 50
[7]; [23]
  Plant response rating, Foxtail, Giant: 90
[7]; [24]
  Plant response rating, Foxtail, Giant: 90
[8]; [23]
  Plant response rating, Corn: 10
[8]; [24]
  Plant response rating, Corn: 50
[9]; [23]
  Plant response rating, Pigweed: 20
[9]; [24]
  Plant response rating, Pigweed: 50
[10]; [23]
  Plant response rating, Kochia: 30
[10]; [24]
  Plant response rating, Kochia: 50
[11]; [23]
  Plant response rating, Galium: 30
[11]; [24]
  Plant response rating, Galium: 60
[12]; [23]
  Plant response rating, Ragweed: 0
[12]; [24]
  Plant response rating, Ragweed: 20
[13]; [23]
  Plant response rating, Barnyardgrass: 80
[13]; [24]
  Plant response rating, Barnyardgrass: 90
[14]; [23]
  Plant response rating, Wheat: 0
[14]; [24]
  Plant response rating, Wheat: 50
[15]; [23]
  Plant response rating, Blackgrass: 30
[15]; [24]
  Plant response rating, Blackgrass: 40
[16]; [23]
  Plant response rating, Ryegrass, Italian: 20
[16]; [24]
  Plant response rating, Ryegrass, Italian: 30
[17]; 250 g ai/ha
  Plant response rating, Rice: 0
[18]; 250 g ai/ha
  Plant response rating, Ducksalad: 100
[19]; 250 g ai/ha
  Plant response rating, Sedge, Umbrella: 0
[20]; 250 g ai/ha
  Plant response rating, Barnyardgrass: 40

## NS(=O)(=O)c1ccccc1NC(=O)C1C(=O)NCC1c1cccc(C(F)(F)F)c1 (stereo not drawn) [Compound 634]
[1]; [21]
  Plant response rating, Foxtail, Giant: 60
[1]; [22]
  Plant response rating, Foxtail, Giant: 80
[2]; [21]
  Plant response rating, Pigweed: 0
[2]; [22]
  Plant response rating, Pigweed: 30
[3]; [21]
  Plant response rating, Kochia: 0
[3]; [22]
  Plant response rating, Kochia: 0
[4]; [21]
  Plant response rating, Ragweed: 0
[4]; [22]
  Plant response rating, Ragweed: 0
[5]; [21]
  Plant response rating, Barnyardgrass: 20
[5]; [22]
  Plant response rating, Barnyardgrass: 70
[6]; [21]
  Plant response rating, Ryegrass, Italian: 0
[6]; [22]
  Plant response rating, Ryegrass, Italian: 0
[7]; [23]
  Plant response rating, Foxtail, Giant: 50
[7]; [25]
  Plant response rating, Foxtail, Giant: 80
[8]; [23]
  Plant response rating, Corn: 0
[8]; [24]
  Plant response rating, Corn: 0
[9]; [23]
  Plant response rating, Pigweed: 0
[9]; [25]
  Plant response rating, Pigweed: 0
[10]; [23]
  Plant response rating, Kochia: 0
[10]; [25]
  Plant response rating, Kochia: 0
[11]; [23]
  Plant response rating, Galium: 30
[11]; [25]
  Plant response rating, Galium: 60
[12]; [23]
  Plant response rating, Ragweed: 0
[12]; [25]
  Plant response rating, Ragweed: 0
[13]; [23]
  Plant response rating, Barnyardgrass: 40
[13]; [24]
  Plant response rating, Barnyardgrass: 80
[14]; [23]
  Plant response rating, Wheat: 0
[14]; [25]
  Plant response rating, Wheat: 0
[15]; [23]
  Plant response rating, Blackgrass: 0
[15]; [24]
  Plant response rating, Blackgrass: 0
[16]; [23]
  Plant response rating, Ryegrass, Italian: 0
[16]; [25]
  Plant response rating, Ryegrass, Italian: 20
[17]; 500 g ai/ha
  Plant response rating, Rice: 15
[18]; 500 g ai/ha
  Plant response rating, Ducksalad: 40
[19]; 500 g ai/ha
  Plant response rating, Sedge, Umbrella: 0
[20]; 500 g ai/ha
  Plant response rating, Barnyardgrass: 20
